Assay results as given in US6737383B1, “Herbicidal oxadiazolidines” (priority 1999, dated 2004).

How the values were obtained:
blackgrass = assay: Test B pre/postemergence blackgrass; format: in vivo, Alopecurus myosuroides
In short: (§1)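 Test chemicals in a non-phytotoxic solvent mixture with surfactant were sprayed preemergence onto planted seeds and postemergence onto plants 2 to 18 cm tall (1- to 4-leaf stage). After twelve to sixteen days in a greenhouse, injury was visually rated against untreated controls from 0 (no effect) to 10 (complete control).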

cocklebur = assay: Test B pre/postemergence cocklebur; format: in vivo, Xanthium strumarium
In short: as §1

corn = assay: Test B pre/postemergence corn; format: in vivo, Zea mays
In short: as §1

crabgrass = assay: Test B pre/postemergence crabgrass; format: in vivo, Digitaria sanguinalis
In short: as §1

giant foxtail = assay: Test B pre/postemergence giant foxtail; format: in vivo, Setaria faberii
In short: as §1

morningglory = assay: Test B pre/postemergence morningglory; format: in vivo, Ipomoea hederacea
In short: as §1

pigweed = assay: Test B pre/postemergence pigweed; format: in vivo, Amaranthus retroflexus
In short: as §1

rape = assay: Test B pre/postemergence rape; format: in vivo, Brassica napus
In short: as §1

soybean = assay: Test B pre/postemergence soybean; format: in vivo, Glycine max
In short: as §1

sugar beet = assay: Test B pre/postemergence sugar beet; format: in vivo, Beta vulgaris
In short: as §1

velvetleaf = assay: Test B pre/postemergence velvetleaf; format: in vivo, Abutilon theophrasti
In short: as §1

wheat = assay: Test B pre/postemergence wheat; format: in vivo, Triticum aestivum
In short: as §1

purple nutsedge = assay: Test B pre/postemergence purple nutsedge; format: in vivo, Cyperus rotundus
In short: as §1

rice = assay: Test B flood test rice; format: in vivo, Oryza sativa
In short: (§2)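 Read-out is a visual response score from 0 (no effect) to 10 (complete control), assigned by comparison with untreated controls. Treatment was applied at the 2-leaf stage, and plants stayed in the greenhouse for twelve to sixteen days before scoring.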

smallflower flatsedge = assay: Test B flood test smallflower flatsedge; format: in vivo, Cyperus difformis
In short: as §2

duck salad = assay: Test B flood test duck salad; format: in vivo, Heteranthera limosa
In short: as §2

[1] = Preemergence, Rate 62 g/ha, scale of 0 to 10 where 0 is no effect and 10 is complete control
[2] = Preemergence, Rate 250 g/ha, scale of 0 to 10 where 0 is no effect and 10 is complete control
[3] = Preemergence, Rate 500 g/ha, scale of 0 to 10 where 0 is no effect and 10 is complete control
[4] = Rate 62 g/ha, Postemergence, scale of 0 to 10 where 0 is no effect and 10 is complete control
[5] = Rate 125 g/ha, Postemergence, scale 0 to 10
[6] = Rate 125 g/ha, Preemergence, scale of 0 to 10 where 0 is no effect and 10 is complete control
[7] = Rate 500 g/ha, Postemergence, scale 0 to 10, 0 no effect, 10 complete control
[8] = Rate 62 g/ha, headed Pre-emergence (flood test species), scale 0 to 10 (0 no effect, 10 complete control)
[9] = Rate 125 g/ha, Pre-emergence, flood test species, scale 0 to 10 where 0 is no effect and 10 is complete control
[10] = Rate 250 g/ha, Pre-emergence, flood-test species, scale 0 to 10, 0 is no effect, 10 is complete control
[11] = Rate 500 g/ha, Pre-emergence, flood test species, scale 0 to 10 (0 no effect, 10 complete control)

CCc1ccc(N(C(=O)n2oc(=O)n(-c3ccccc3C)c2=O)C(C)C)cc1 [Compound 230]
Blackgrass plant response rating (blackgrass; [1]): 0 | Blackgrass plant response rating (blackgrass; [2]): 0 | Plant response rating, Blackgrass (blackgrass; [3]): 2 | Blackgrass plant response rating (blackgrass; [4]): 0 | Blackgrass plant response rating (blackgrass; [5]): 0 | Blackgrass plant response rating (blackgrass; [6]): 0 | Plant response rating (0 to 10; 0 is no effect, 10 is complete control), Blackgrass (blackgrass; Rate 250 g/ha, Postemergence): 0 | Blackgrass plant response rating (blackgrass; [7]): 0 | Cocklebur plant response rating (cocklebur; [1]): 0 | Cocklebur plant response rating (cocklebur; [2]): 0 | Plant response rating, Cocklebur (cocklebur; [3]): 0 | Cocklebur plant response rating (cocklebur; [4]): 0 | Cocklebur plant response rating (cocklebur; [5]): 0 | Cocklebur plant response rating (cocklebur; [6]): 0 | Plant response rating (0 to 10; 0 is no effect, 10 is complete control), Cocklebur (cocklebur; Rate 250 g/ha, Postemergence): 0 | Cocklebur plant response rating (cocklebur; [7]): 0 | Corn plant response rating (corn; [1]): 0 | Corn plant response rating (corn; [2]): 0 | Plant response rating, Corn (corn; [3]): 0 | Corn plant response rating (corn; [4]): 0 | Corn plant response rating (corn; [5]): 0 | Corn plant response rating (corn; [6]): 0 | Plant response rating (0 to 10; 0 is no effect, 10 is complete control), Corn (corn; Rate 250 g/ha, Postemergence): 0 | Corn plant response rating (corn; [7]): 0 | Crabgrass plant response rating (crabgrass; [1]): 1 | Crabgrass plant response rating (crabgrass; [2]): 7 | Plant response rating, Crabgrass (crabgrass; [3]): 9 | Crabgrass plant response rating (crabgrass; [4]): 0 | Crabgrass plant response rating (crabgrass; [5]): 0 | Crabgrass plant response rating (crabgrass; [6]): 1 | Plant response rating (0 to 10; 0 is no effect, 10 is complete control), Crabgrass (crabgrass; Rate 250 g/ha, Postemergence): 0 | Crabgrass plant response rating (crabgrass; [7]): 2 | Giant foxtail plant response rating (giant foxtail; [1]): 2 | Giant foxtail plant response rating (giant foxtail; [2]): 8 | Plant response rating, Giant foxtail (giant foxtail; [3]): 9 | Giant foxtail plant response rating (giant foxtail; [4]): 0 | Giant foxtail plant response rating (giant foxtail; [5]): 0 | Giant foxtail plant response rating (giant foxtail; [6]): 2 | Plant response rating (0 to 10; 0 is no effect, 10 is complete control), Giant foxtail (giant foxtail; Rate 250 g/ha, Postemergence): 0 | Giant foxtail plant response rating (giant foxtail; [7]): 1 | Morningglory plant response rating (morningglory; [1]): 0 | Morningglory plant response rating (morningglory; [2]): 0 | Plant response rating, Morningglory (morningglory; [3]): 2 | Morningglory plant response rating (morningglory; [4]): 0 | Morningglory plant response rating (morningglory; [5]): 2 | Morningglory plant response rating (morningglory; [6]): 0 | Plant response rating (0 to 10; 0 is no effect, 10 is complete control), Morningglory (morningglory; Rate 250 g/ha, Postemergence): 2 | Morningglory plant response rating (morningglory; [7]): 7 | Redroot pigweed plant response rating (pigweed; [1]): 0 | Redroot pigweed plant response rating (pigweed; [2]): 0 | Plant response rating, Redroot pigweed (pigweed; [3]): 0 | Redroot pigweed plant response rating (pigweed; [4]): 0 | Redroot pigweed plant response rating (pigweed; [5]): 0 | Redroot pigweed plant response rating (pigweed; [6]): 0 | Plant response rating (0 to 10; 0 is no effect, 10 is complete control), Redroot pigweed (pigweed; Rate 250 g/ha, Postemergence): 0 | Redroot pigweed plant response rating (pigweed; [7]): 0 | Rape plant response rating (rape; [1]): 0 | Rape plant response rating (rape; [2]): 0 | Plant response rating, Rape (rape; [3]): 0 | Rape plant response rating (rape; [4]): 0 | Rape plant response rating (rape; [5]): 0 | Rape plant response rating (rape; [6]): 0 | Plant response rating (0 to 10; 0 is no effect, 10 is complete control), Rape (rape; Rate 250 g/ha, Postemergence): 0 | Rape plant response rating (rape; [7]): 0 | Soybean plant response rating (soybean; [1]): 0 | Soybean plant response rating (soybean; [2]): 0 | Plant response rating, Soybean (soybean; [3]): 0 | Soybean plant response rating (soybean; [4]): 0 | Soybean plant response rating (soybean; [5]): 0 | Soybean plant response rating (soybean; [6]): 0 | Plant response rating (0 to 10; 0 is no effect, 10 is complete control), Soybean (soybean; Rate 250 g/ha, Postemergence): 4 | Soybean plant response rating (soybean; [7]): 5 | Sugarbeets plant response rating (sugar beet; [1]): 0 | Sugarbeets plant response rating (sugar beet; [2]): 0 | Plant response rating, Sugarbeets (sugar beet; [3]): 0 | Sugarbeets plant response rating (sugar beet; [4]): 0 | Sugarbeets plant response rating (sugar beet; [5]): 0 | Sugarbeets plant response rating (sugar beet; [6]): 0 | Plant response rating (0 to 10; 0 is no effect, 10 is complete control), Sugarbeets (sugar beet; Rate 250 g/ha, Postemergence): 0 | Sugarbeets plant response rating (sugar beet; [7]): 0 | Velvetleaf plant response rating (velvetleaf; [1]): 0 | Velvetleaf plant response rating (velvetleaf; [2]): 0 | Plant response rating, Velvetleaf (velvetleaf; [3]): 0 | Velvetleaf plant response rating (velvetleaf; [4]): 0 | Velvetleaf plant response rating (velvetleaf; [5]): 0 | Velvetleaf plant response rating (velvetleaf; [6]): 0 | Plant response rating (0 to 10; 0 is no effect, 10 is complete control), Velvetleaf (velvetleaf; Rate 250 g/ha, Postemergence): 0 | Velvetleaf plant response rating (velvetleaf; [7]): 0 | Wheat plant response rating (wheat; [1]): 0 | Wheat plant response rating (wheat; [2]): 0 | Plant response rating, Wheat (wheat; [3]): 0 | Wheat plant response rating (wheat; [4]): 0 | Wheat plant response rating (wheat; [5]): 0 | Wheat plant response rating (wheat; [6]): 0 | Plant response rating (0 to 10; 0 is no effect, 10 is complete control), Wheat (wheat; Rate 250 g/ha, Postemergence): 0 | Wheat plant response rating (wheat; [7]): 0 | Nutsedge plant response rating (purple nutsedge; [1]): 0 | Nutsedge plant response rating (purple nutsedge; [2]): 0 | Plant response rating, Nutsedge (purple nutsedge; [3]): 0 | Nutsedge plant response rating (purple nutsedge; [4]): 0 | Nutsedge plant response rating (purple nutsedge; [5]): 0 | Nutsedge plant response rating (purple nutsedge; [6]): 0 | Plant response rating (0 to 10; 0 is no effect, 10 is complete control), Nutsedge (purple nutsedge; Rate 250 g/ha, Postemergence): 0 | Nutsedge plant response rating (purple nutsedge; [7]): 0 | Rice plant response rating (rice; [8]): 0 | Rice plant response rating (rice; [9]): 0 | Rice plant response rating (rice; [10]): 0 | Rice plant response rating (rice; [11]): 0 | S. Flatsedge plant response rating (smallflower flatsedge; [8]): 0 | S. Flatsedge plant response rating (smallflower flatsedge; [9]): 0 | S. Flatsedge plant response rating (smallflower flatsedge; [10]): 0 | S. Flatsedge plant response rating (smallflower flatsedge; [11]): 0 | Ducksalad plant response rating (duck salad; [8]): 0 | Ducksalad plant response rating (duck salad; [9]): 0 | Ducksalad plant response rating (duck salad; [10]): 0 | Ducksalad plant response rating (duck salad; [11]): 0
